In brackets after ≈: the same amount, converted by molar mass. Like-named read-outs stand apart in the source and are kept apart here.
How the values were obtained:
[1] = system: Salmonella typhimurium tester strain TA100; assay: Salmonella/microsome plate incorporation assay (Ames screen), TA100; format: cell-based; conditions: TA100, without metabolic activation, 5 μg per plate
Description: A liability in developing any bioreductively-activated antimicrobial drug is the potential for mutagenicity. Because the basis for activity of these compounds is the generation of intermediate radical species, undesirable mutagenicity poses a risk, as has been documented for many classes of bioreductive drugs, including the BTO tirapazamine (TPZ).^19,20 The most convenient methodology for assessing the potential to induce genetic damage is to use the plate incorporation method with Salmonella typhimurium strains TA98 and TA100, commonly known as the Ames assay. The Salmonella tester strains have mutations in the histidine operon, a mutation that leads to defective lipopolysaccharide (rfa), and a deletion that covers genes involved in the synthesis of biotin (bio) and in the repair of ultraviolet-induced DNA damage (uvrB).^21,22 These mutations make the strains more permeable to many molecules and increase their susceptibility to the mutagenic effects of these molecules. Given that the hypothesized mechanism of the BTO compounds is to selectively form cytotoxic radical species in bacteria over mammalian cells, a microbial mutagenicity assay is not ideal, but was used to benchmark their activities in this assay. […] Individual plate counts and their means and standard deviations, along with the condition of the background lawn, are presented in SI Table 2.
Experimental compounds were screened for microbial mutagenicity activity using the plate incorporation method with Salmonella typhimurium tester strains TA98 and TA100, in the presence and absence of an Aroclor 1254-induced rat-liver metabolic activation system containing 10% S9 (MA). The presence of the appropriate genetic characteristics was verified for the strains used in this study. Stock solutions were made by dissolving each test sample in dimethyl sulfoxide (DMSO) at 5 mg/ml. These initial stock concentrations were then serially diluted to achieve dose formulations of 100, 50, 10, 5, 1, 0.5, and 0.1 μg/plate (dosing volume 100 μl). Test plates were compared with the control plates for their revertant count and for the condition of the background bacterial lawn. A test article was considered a mutagen when the mean number of revertant colonies on the test plates exceeds the mean solvent control counts by at least a two-fold margin. Dose relatedness was also taken into account when evaluating a mutagenic response. Cytotoxicity was estimated by several parameters: a substantial decrease in the number of revertant colonies on the test plates, clearing or absence of the background bacterial lawn growth, formation of pinpoint nonrevertant colonies, or complete absence of bacterial growth.

Mtb H37Rv [2] = assay: TB MIC - ITR (UIC), Institute for Tuberculosis Research; format: cell-based, Mycobacterium tuberculosis; conditions: for TB MIC - ITR / MIC: Tables 1-4; for TB MIC - UIC: Tables P1, P2; for MIC: Mycobacterium tuberculosis, H37RV, read-out: TB MIC - ITR
Mtb H37Rv [3] = assay: TB MIC - SRI, resazurin-based microplate assay; format: cell-based, Mycobacterium tuberculosis; conditions: for MIC: Mycobacterium tuberculosis, H37RV
NRP Mtb H37Rv cells = assay: Low-oxygen recovery assay (LORA) MIC; format: cell-based, Mycobacterium tuberculosis; conditions: for LORA MIC - ITR / MIC: NRP Mtb, Tables 1-4 and text; for LORA MIC: Tables P1, P2, non-replicating M. tuberculosis; for MIC: Mycobacterium tuberculosis, H37RV, read-out: LORA MIC - ITR
[4] = Tables P1-P3, read-out: TB MIC - SRI
[5] = Tables 1-4 and text, read-out: TB MIC - SRI

Compound	TB MIC - UIC (Mtb H37Rv [2]) [µg/mL]	MIC (Mtb H37Rv [3]; [4]) [µg/mL]	VERO Tox-SRI (Vero cells; African green monkey, 72 h)	LORA MIC (NRP Mtb H37Rv cells) [µg/mL]	MIC (Mtb H37Rv [2]) [µg/mL]	MIC (Mtb H37Rv [3]; [5]) [µg/mL]	Vero Tox CC50 (Vero cells; African green monkey, 72 h) [µg/mL]	MIC (NRP Mtb H37Rv cells) [µg/mL]	also measured
[N-]=[N+]=[N-].[Na+] [SA]									Mean revertants per plate [1]: 1620.0; Ratio treated/solvent [1]: 10.0
O=S1(=O)CCN(c2n[n+]([O-])c3cc4c(cc3[n+]2[O-])CCC4)CC1 [Compound 20v, 3-(thiomorpholinosulfone-1-yl)-7,8-dihydro-6H-indeno[5,6-e][1,2,4]triazine 1,4-dioxide]									TB MIC - ITR (Mtb H37Rv [2]): 15 µg/mL; TB MIC - SRI (Mtb H37Rv [3]; Tables 1-4 and text): 5.0 µg/mL; Vero Tox CC50 (Vero cells): 17 µg/mL; LORA MIC - ITR (NRP Mtb H37Rv cells): 30 µg/mL
[O-][n+]1nc(NC2CCCC2)[n+]([O-])c2ccc(F)cc21 [SRI-012277]	0.33	0.312 (≈ 1.18 µM)	2.3	0.34					
[O-][n+]1nc(N[C@@H]2C[C@H]3CC[C@@H]2C3)[n+]([O-])c2ccc(F)cc21 (racemic) [SRI-012280]	< 0.125	0.312 (≈ 1.07 µM)	<2.5	0.21					
[O-][n+]1nc(NC2CCC2)[n+]([O-])c2ccc(Cl)cc21 [SRI-012302]	< 0.125	0.156 (≈ 0.585 µM)	1.6	< 0.125					
CS(=O)(=O)N1CCN(c2n[n+]([O-])c3cc4c(cc3[n+]2[O-])CCC4)CC1 [Compound 20x, 3-(4-(methylsulfonyl)piperazin-1-yl)-7,8-dihydro-6H-indeno[5,6-e][1,2,4]triazine 1,4-dioxide]					13 (≈ 35.6 µM)	2.5 to 5 (≈ 6.84 to 13.7 µM)	>50	15 (≈ 41 µM)	TB MIC - SRI (Mtb H37Rv [3]; Tables 1-4 and text): 5.0 µg/mL
COCCNC(=O)c1ccc2c(c1)[n+]([O-])c(C(C)=O)c(C)[n+]2[O-] [Cmpd 5]					27 (≈ 84.6 µM)	10 (≈ 31.3 µM)	>16	> 32	
CCNc1n[n+]([O-])c2cc(Cl)ccc2[n+]1[O-] [SRI-012306]	< 0.125	1.25 (≈ 5.19 µM)	2.65	0.41					
CC(Nc1n[n+]([O-])c2cc(F)ccc2[n+]1[O-])C(C)(C)C (stereo not shown) [SRI-012283]	0.5	1.25 (≈ 4.46 µM)	<2.5	0.42					
CCC(COC)Nc1n[n+]([O-])c2cc(F)ccc2[n+]1[O-] (stereo not shown) [SRI-012278]	2	5 (≈ 17.7 µM)	6.3	1.87					
CCC(COC)Nc1n[n+]([O-])c2cc(Cl)ccc2[n+]1[O-] (stereo not shown) [SRI-012304]	1.46	1.25 (≈ 4.18 µM)	2.6	0.78					
[O-][n+]1nc(N[C@@H]2C[C@H]3CC[C@@H]2C3)[n+]([O-])c2cc3c(cc21)CCC3 [Compound 15fm, 3-((1R,2R,4S)-bicyclo[2.2.1]heptan-2-ylamino)-7,8-dihydro-6H-indeno[5,6-e][1,2,4]triazine 1,4-dioxide]					0.93 (≈ 2.98 µM)	1.2 (≈ 3.84 µM)	>50	0.36 (≈ 1.15 µM)	
CC(C)(C)Nc1n[n+]([O-])c2ccccc2[n+]1[O-] [Compound 8c, 3-(tert-butylamino)benzo[e][1,2,4]triazine 1,4-dioxide]					1.9 (≈ 8.11 µM)	1.2 (≈ 5.12 µM)	8.0	0.82 (≈ 3.5 µM)	MIC (Mtb H37Rv [3]; Table 5, read-out: MIC, H37Rv): 2.5 µg/mL (≈ 10.7 µM)
[O-][n+]1nc(N[C@@H]2C[C@H]3CC[C@@H]2C3)[n+]([O-])c2ccccc21 [Compound 8m, 3-((1R,2R,4S)-bicyclo[2.2.1]heptan-2-ylamino)benzo[e][1,2,4]triazine 1,4-dioxide]					0.6 (≈ 2.2 µM)	0.62 (≈ 2.28 µM)	3.4	0.42 (≈ 1.54 µM)	
[O-][n+]1nc(NC2CC2)[n+]([O-])c2ccc(Cl)cc21 [SRI-012301]	0.21	0.625 (≈ 2.47 µM)	1.36	0.22					
[O-][n+]1nc(N[C@@H]2C[C@H]3CC[C@@H]2C3)[n+]([O-])c2ccc(F)cc21 [Compound 15am, 3-((1R,2R,4S)-bicyclo[2.2.1]heptan-2-ylamino)-7-fluorobenzo[e][1,2,4]triazine 1,4-dioxide]					< 0.12	0.31 (≈ 1.07 µM)	<2.5	0.21 (≈ 0.723 µM)	
CCN(CC)c1n[n+]([O-])c2ccccc2[n+]1[O-] [Compound 17o, 3-(diethylamino)benzo[e][1,2,4]triazine 1,4-dioxide]					0.46 (≈ 1.96 µM)	0.31 (≈ 1.32 µM)	12	1.3 (≈ 5.55 µM)	
[O-][n+]1nc(N[C@@H]2C[C@H]3CC[C@@H]2C3)[n+]([O-])c2ccc(Cl)cc21 [Compound 15bm, 3-((1R,2R,4S)-bicyclo[2.2.1]heptan-2-ylamino)-7-chlorobenzo[e][1,2,4]triazine 1,4-dioxide]					0.22 (≈ 0.717 µM)	0.15 (≈ 0.489 µM)	1.1	0.23 (≈ 0.75 µM)	
CCNc1n[n+]([O-])c2cc(Br)ccc2[n+]1[O-] [Compound 15ca, 7-bromo-3-(ethylamino)benzo[e][1,2,4]triazine 1,4-dioxide]					0.49 (≈ 1.72 µM)	0.62 (≈ 2.17 µM)	4.2	0.46 (≈ 1.61 µM)	
CCNc1n[n+]([O-])c2cc(Cl)ccc2[n+]1[O-] [Compound 15ba, 7-chloro-3-(ethylamino)benzo[e][1,2,4]triazine 1,4-dioxide]					< 0.12	1.2 (≈ 4.99 µM)	2.6	0.41 (≈ 1.7 µM)	
COc1ccc2c(c1)[n+]([O-])nc(N[C@@H]1C[C@H]3CC[C@@H]1C3)[n+]2[O-] [Compound 15dm, 3-((1R,2R,4S)-bicyclo[2.2.1]heptan-2-ylamino)-7-methoxybenzo[e][1,2,4]triazine 1,4-dioxide]					0.97 (≈ 3.21 µM)	0.62 (≈ 2.05 µM)	>50	1.6 (≈ 5.29 µM)	
COc1ccc2c(c1)[n+]([O-])nc(NC1CCC1)[n+]2[O-] [Compound 15dd, 3-(cyclobutylamino)-7-methoxybenzo[e][1,2,4]triazine 1,4-dioxide]					0.96 (≈ 3.66 µM)	0.62 (≈ 2.36 µM)	9.8	0.9 (≈ 3.43 µM)	
[O-][n+]1nc(NC2CCC2)[n+]([O-])c2ccc(Br)cc21 [Compound 15cd, 7-bromo-3-(cyclobutylamino)benzo[e][1,2,4]triazine 1,4-dioxide]					0.46 (≈ 1.48 µM)	0.15 (≈ 0.482 µM)	3.8	0.41 (≈ 1.32 µM)	
CCNc1n[n+]([O-])c2cccc(C)c2[n+]1[O-] [Compound 15ea, Ethyl-(5-methyl-1,4-dioxy-benzo[1,2,4]triazin-3-yl)-amine]									TB MIC - ITR (Mtb H37Rv [2]): 0.51 µg/mL; MIC, H37Rv (Mtb H37Rv [3]; Table 5): 0.62 µg/mL (≈ 2.82 µM); TB MIC - SRI (Mtb H37Rv [3]; Tables 1-4 and text): 0.62 µg/mL; Vero Tox CC50 (Vero cells): 22 µg/mL; LORA MIC - ITR (NRP Mtb H37Rv cells): 0.48 µg/mL

Source: patent publication US9663478B2, “Benzotriazine oxides as drugs targeting Mycobacterium tuberculosis” (priority 2011, dated 2017)
